The numbers were not newly measured in patent US5292505A, “Sulphated vinyl polymer in composition for treating retroviral infections” (Stichting Rega VZW, priority 1989, dated 1994), which cites them from elsewhere.

For series [1], the system named is Molt-4 cells co-cultured with HIV-1-infected HUT-78 cells. The following applies: statement without own test.
For a further series, the system named is AIDS. Conditions: AIDS patients, Fischl et al.

`Cc1cn([C@H]2C[C@H](N=[N+]=[N-])[C@@H](CO)O2)c(=O)[nH]c1=O` [azidothymidine, 3'-azido-2',3'-dideoxythymidine]: the “inhibition of giant cell formation” value in series [1] is recorded as “does not show such effect”. Moreover, the clinical effectiveness result in the series on AIDS is “clinically effective”.
